# Reference: patent US10781224B2, “Bis(oxymethyl)phosphinic acid and biogenic metal salts thereof as regulators of plant growth and development” (priority 2016, dated 2020)
# Assays:
# Type in all cases: in vivo
# [1] = tested on: spring wheat (Ekada-66 variety); assay: Spring wheat seed treatment: germination rate and plant height (laboratory, Petri dishes); conditions: for Germination rate % 4th day / Germination rate % 8th day / Plant height: spring wheat
# Description: (§1) Control—Soaking Seeds in Water;
# (§2) Experimental versions—soaking seeds in BHMPA solutions and solutions of BHMPA Ca, Mg, Na, Co, Mn, Cu, and Zn salts at 1·10^−6-1·10^−12% concentrations (doses). The studies were conducted in laboratory in Petri dishes; seed bed—two layers of filter paper. 50 seeds soaked in water (control) and in the solutions of the tested compounds (experimental) were placed into each dish. Wheat, corn, and rice seeds were exposed for one hour.
# (§3) Analysis was conducted according to the government standards GOST 12038-84 “Crop seeds. Technical conditions for determining the germination energy and germination rate”, GOST 12044-93 “Crop seeds. Methods for determining disease contamination.”
# (§4) Seed germination energy and rate were calculated in percent as an arithmetic mean of the four experimental results (germination energy on the 4th day, wheat germination on the 8th day, rice and corn germination—on the 7th day). Germination was determined based on the germinating power indicators (length of the roots and sprouts and their wet and dry mass per 100 shoots).
# (§5) The study of the effect of pre-sowing seed treatment with BHMPA was conducted on winter wheat (Kazan-500 variety) and spring wheat (Ekada-66 variety).
# [2] = tested on: spring wheat seeds: contamination by mold, alternaria, bacteriosis; assay: Phytopathological properties (seed contamination) of treated spring wheat seeds
# Description: as §2, §3, §5
# The effect of the treatment with BHMPA on phytopathological properties of spring wheat seeds was examined and the results are presented in Table II. […] The biological activity in this case was 64.4%. In other samples, contamination of the seeds also remained lower than that of the control. Treatment of seeds with BHMPA solutions reduced their overall contamination.
# [3] = tested on: winter wheat (Kazan-500 variety); assay: Winter wheat seed treatment with BHMPA: germination energy, germination rate, plant height, roots
# Description: as §1, §2, §3, §4, §5
structure (smiles),measurement,setting,value
"O=P(O)(CO)CO [BHMPA, bis-(hydroxymethyl)-phosphinic acid]",Germination rate % 4th day,[1]; 1·10^−7% solution,28.0%
same,Germination rate % 8th day,[1]; 1·10^−7% solution,70.0%
same,Plant height,[1]; 1·10^−7% solution,14.1 cm
same,Germination rate % 4th day,[1]; 1·10^−9% solution,33.0%
same,Germination rate % 8th day,[1]; 1·10^−9% solution,81.5%
same,Plant height,[1]; 1·10^−9% solution,14.3 cm
same,Germination rate % 4th day,[1]; 1·10^−12% solution,32.5%
same,Germination rate % 8th day,[1]; 1·10^−12% solution,81.3%
same,Plant height,[1]; 1·10^−12% solution,14.4 cm
same,growth-regulating ability compared with Melaphen,"[1]; wheat, Tables I-III, 1·10^−9%, 1·10^−11% and 1·10^−12%",lesser impact than that of the prototype Melaphen
same,Biological efficacy,[2]; 1·10^−7% solution,44.1%
same,Contamination by type: alternaria,[2]; 1·10^−7% solution,24%
same,Contamination by type: bacteriosis,[2]; 1·10^−7% solution,6%
same,Contamination by type: mold,[2]; 1·10^−7% solution,3%
same,Overall contamination,[2]; 1·10^−7% solution,33.0%
same,Biological efficacy,[2]; 1·10^−8% solution,42.4%
same,Contamination by type: alternaria,[2]; 1·10^−8% solution,26%
same,Contamination by type: bacteriosis,[2]; 1·10^−8% solution,6%
same,Contamination by type: mold,[2]; 1·10^−8% solution,2%
same,Overall contamination,[2]; 1·10^−8% solution,34.0%
same,Biological efficacy,[2]; 1·10^−9% solution,64.4%
same,Contamination by type: alternaria,[2]; 1·10^−9% solution,14%
same,Contamination by type: bacteriosis,[2]; 1·10^−9% solution,4%
same,Contamination by type: mold,[2]; 1·10^−9% solution,3%
same,Overall contamination,[2]; 1·10^−9% solution,21.5%
same,overall seed contamination lower than that of the control by,"[2]; 1·10^−9% solution, control 59%",38%
same,Overall contamination,"[2]; 1·10^−9% solution, listed as bis-(hydroxymethyl)-phosphinic acid",21.0%
same,Biological efficacy,[2]; 1·10^−10% solution,61.0%
same,Contamination by type: alternaria,[2]; 1·10^−10% solution,16%
same,Contamination by type: bacteriosis,[2]; 1·10^−10% solution,4%
same,Contamination by type: mold,[2]; 1·10^−10% solution,3%
same,Overall contamination,[2]; 1·10^−10% solution,23.0%
same,Biological efficacy,[2]; 1·10^−11% solution,22.0%
same,Contamination by type: alternaria,[2]; 1·10^−11% solution,42%
same,Contamination by type: bacteriosis,[2]; 1·10^−11% solution,2%
same,Contamination by type: mold,[2]; 1·10^−11% solution,2%
same,Overall contamination,[2]; 1·10^−11% solution,46.0%
same,Biological efficacy,[2]; 1·10^−12% solution,44.1%
same,Contamination by type: alternaria,[2]; 1·10^−12% solution,28%
same,Contamination by type: bacteriosis,[2]; 1·10^−12% solution,3%
same,Contamination by type: mold,[2]; 1·10^−12% solution,2%
same,Overall contamination,[2]; 1·10^−12% solution,33.0%
same,Germination energy,[3]; 1·10^−7% solution,82.5%
same,Germination rate,[3]; 1·10^−7% solution,84.0%
same,Number of roots,[3]; 1·10^−7% solution,3.3
same,Plant height,[3]; 1·10^−7% solution,11.3 cm
same,Root length,[3]; 1·10^−7% solution,11.7 cm
same,Germination energy,[3]; 1·10^−8% solution,86.0%
same,Germination rate,[3]; 1·10^−8% solution,86.0%
same,Number of roots,[3]; 1·10^−8% solution,3.1
same,Plant height,[3]; 1·10^−8% solution,12.5 cm
same,Root length,[3]; 1·10^−8% solution,12.1 cm
same,Germination energy,[3]; 1·10^−9% solution,87.4%
same,Germination rate,[3]; 1·10^−9% solution,96.0%
same,Number of roots,[3]; 1·10^−9% solution,3.4
same,Plant height,[3]; 1·10^−9% solution,13.6 cm
same,Root length,[3]; 1·10^−9% solution,12.3 cm
same,Germination energy,[3]; 1·10^−10% solution,85.7%
same,Germination rate,[3]; 1·10^−10% solution,90.0%
same,Number of roots,[3]; 1·10^−10% solution,3.2
same,Plant height,[3]; 1·10^−10% solution,11.2 cm
same,Root length,[3]; 1·10^−10% solution,11.5 cm
same,Germination energy,[3]; 1·10^−11% solution,83.9%
same,Germination rate,[3]; 1·10^−11% solution,92.0%
same,Number of roots,[3]; 1·10^−11% solution,3.3
same,Plant height,[3]; 1·10^−11% solution,12.4 cm
same,Root length,[3]; 1·10^−11% solution,11.3 cm
same,Germination energy,[3]; 1·10^−12% solution,90.0%
same,Germination rate,[3]; 1·10^−12% solution,95.0%
same,Number of roots,[3]; 1·10^−12% solution,3.3
same,Plant height,[3]; 1·10^−12% solution,14.1 cm
same,Root length,[3]; 1·10^−12% solution,11.9 cm
